Counter-ions that a name gives are not always drawn.
What was measured:
[1] = molecular target: T1, 3-hydroxy-3-methylglutaryl coenzyme A reductase (Rattus norvegicus, UniProt P51639); test: Inhibitory activity towards 3-hydroxy-3-methylglutaryl coenzyme A reductase (method of Shefer et al.); format: biochemical
T1 sequence (P51639 1-887): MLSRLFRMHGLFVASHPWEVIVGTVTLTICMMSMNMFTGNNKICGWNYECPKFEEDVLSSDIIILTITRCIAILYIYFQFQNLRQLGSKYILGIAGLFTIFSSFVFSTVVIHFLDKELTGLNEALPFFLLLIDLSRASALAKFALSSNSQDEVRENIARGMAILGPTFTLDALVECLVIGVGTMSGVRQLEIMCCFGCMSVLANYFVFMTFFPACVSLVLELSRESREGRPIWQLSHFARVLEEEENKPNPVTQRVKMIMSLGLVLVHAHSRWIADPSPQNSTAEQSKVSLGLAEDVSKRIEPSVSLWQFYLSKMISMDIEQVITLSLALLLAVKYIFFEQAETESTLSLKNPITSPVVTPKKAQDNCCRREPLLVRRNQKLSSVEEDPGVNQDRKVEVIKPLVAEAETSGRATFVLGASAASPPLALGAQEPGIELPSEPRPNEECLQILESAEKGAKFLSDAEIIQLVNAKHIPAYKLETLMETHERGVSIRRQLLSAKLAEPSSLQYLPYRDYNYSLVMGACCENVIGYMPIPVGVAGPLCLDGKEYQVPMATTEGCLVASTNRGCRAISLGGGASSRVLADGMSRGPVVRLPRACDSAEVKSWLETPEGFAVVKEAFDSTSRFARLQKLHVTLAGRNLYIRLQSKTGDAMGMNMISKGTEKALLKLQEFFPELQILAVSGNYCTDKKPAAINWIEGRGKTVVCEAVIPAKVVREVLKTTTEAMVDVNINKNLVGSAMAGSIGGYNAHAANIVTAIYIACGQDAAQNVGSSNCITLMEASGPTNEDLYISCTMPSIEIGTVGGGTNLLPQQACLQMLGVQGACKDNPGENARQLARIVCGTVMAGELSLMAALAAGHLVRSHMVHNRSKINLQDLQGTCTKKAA
Description: EXAMPLE XVII-DETERMINATION OF THE INHIBITORY ACTIVITY OF THE COMPOUNDS TOWARDS 3-HYDROXY-3-METHYLGLUTARYL COENZYME A REDUCTASE
The method used is the one described by Shefer et al. (J. Lipid Res. 1972, 13, 402); cf. also Stokker (J. Med. Chem. 1985, 28, 357).

[2] = system: experimental hyperlipemia induced by Triton (rats); test: Activity on the experimental hyperlipemia induced by Triton; format: in vivo; conditions: rat, Triton 300 mg/kg i.p., 18 hours
Protocol: EXAMPLE XV-ACTIVITY ON THE EXPERIMENTAL HYPERLIPEMIA INDUCED BY TRITON
Groups of 10 fasted rats weighing about 200 g are treated with an intraperitoneal injection of Triton at a dose of 300 mg/kg; immediately afterwards, the products are administered orally.
After 18 hours, the cholesterol and triglycerides are determined.

[3] = system: rats rendered hyperlipemic with olive oil; test: Hypolipemic activity in rats rendered hyperlipemic with olive oil; format: in vivo; conditions: rat, atherogenic diet enriched with olive oil
Protocol: EXAMPLE XVI-HYPOLIPEMIC ACTIVITY IN RATS RENDERED HYPERLIPEMIC WITH OLIVE OIL
A group of rats is placed on an atherogenic hyperlipemic diet enriched with olive oil and the animals are then treated per os. The cholesterol and triglycerides are then determined as in the previous example. […]

[4] = system: cholesterol synthesis; conditions: cited from earlier work
[5] = oral 150 mg/kg, listed as Ex. IV
[6] = per os 100 mg/kg, listed as Ex. IV
[7] = oral 150 mg/kg, listed as Ex. I
[8] = per os 100 mg/kg, listed as Ex. I
[9] = oral 150 mg/kg, listed as Ex. III
[10] = per os 100 mg/kg, listed as Ex. III

| Compound | IC50 [1] | Cholesterol level ([2]; oral 150 mg/kg) | Triglyceride level ([2]; oral 150 mg/kg) | further results |
| --- | --- | --- | --- | --- |
| CC1=CCC(OC(=O)[C@@H]2CCC(=O)N2)(C(C)C)CC1 (stereo partly drawn) [Example XIII, L-Pyroglutamate of terpin-4-enol] | 210 nM | 1.90 g/L | 1.20 g/L |  |
| CC1CCCC(C)C1OC(=O)[C@@H]1CCC(=O)N1 (stereo partly drawn) [Example X, L-Pyroglutamate of 2,6-dimethylcyclohexanol] | 400 nM |  |  |  |
| CC1CC(C)CC(OC(=O)[C@@H]2CCC(=O)N2)C1 (stereo partly drawn) [Example IX, L-Pyroglutamate of 3,5-dimethylcyclohexanol] | 400 nM | 2.10 g/L | 1.30 g/L |  |
| CC1CC(OC(=O)[C@@H](N)CCC(=O)O)CC(C)(C)C1 (stereo partly drawn) [Example VI, TRANS-3,3,5-TRIMETHYLCYCLOHEXYL L-α-GLUTAMATE HYDROCHLORIDE] | 120 nM | 2.50 g/L | 2.00 g/L |  |
| CC1(OC(=O)[C@@H]2CCC(=O)N2)CCCC1 [Example XII, L-Pyroglutamate of 1-methylcyclopentanol] | 600 nM |  |  |  |
| CC1CC(OC(=O)[C@@H]2CCC(=O)N2)CC(C)(C)C1 (single isomer, unassigned) [Example IV, 3,3,5-TRIMETHYLCYCLOHEXYL PYROGLUTAMATE] | 150 nM |  |  | Cholesterol level [2, 5]: 2.15 g/L; Triglyceride level [2, 5]: 0.85 g/L; Cholesterol level [3, 6]: 1.47 g/L; Triglyceride level [3, 6]: 0.80 g/L |
| CC1CC(OC(=O)[C@@H](N)CCC(N)=O)CC(C)(C)C1 (stereo partly drawn) [Example V, trans-3,3,5-trimethylcyclohexyl L-γ-amidoglutamate hydrochloride] | 80 nM | 1.95 g/L | 1.15 g/L | Cholesterol level ([3]; per os 100 mg/kg): 1.62 g/L; Triglyceride level ([3]; per os 100 mg/kg): 0.92 g/L |
| CC1CC(OC(=O)[C@@H]2CCC(=O)N2)CC(C)(C)C1 (single isomer, unassigned) [Example I, 3,3,5-Trimethylcyclohexyl L-pyroglutamate] | 100 nM |  |  | Cholesterol level ([2]; oral 50 mg/kg): 2.80 g/L; Triglyceride level ([2]; oral 50 mg/kg): 1.46 g/L; Cholesterol level [2, 7]: 1.95 g/L; Triglyceride level [2, 7]: 0.93 g/L; Cholesterol level ([3]; per os 25 mg/kg): 1.73 g/L; Triglyceride level ([3]; per os 25 mg/kg): 1.39 g/L; Cholesterol level [3, 8]: 1.50 g/L; Triglyceride level [3, 8]: 0.80 g/L |
| CN(C)CCCN(C)[C@H]1CC[C@H]2[C@@H]3CC=C4C[C@@H](O)CC[C@]4(C)[C@H]3CC[C@]12C [20, 25-Diazacholesterol] |  |  |  | inhibits cholesterol synthesis [4]: inhibits cholesterol synthesis |
| CC1=CC(OC(=O)[C@@H]2CCC(=O)N2)CC(C)(C)C1 (stereo partly drawn) [Example XI, L-Pyroglutamate of 3,5,5-trimethylcyclohex-2-en-1-ol] | 130 nM | 2.00 g/L | 1.92 g/L |  |
| CC1CC(OC(=O)[C@@H]2CCC(=O)N2)CC(C)(C)C1 (some centres unmarked) [Example III, 3,3,5-trimethylcyclohexyl pyroglutamate] |  |  |  | Cholesterol level [2, 9]: 2.00 g/L; Triglyceride level [2, 9]: 1.10 g/L; Cholesterol level [3, 10]: 1.47 g/L; Triglyceride level [3, 10]: 1.01 g/L |
| O=C1CC[C@@H](C(=O)OC2CCCCC2)N1 [Example VIII, L-Pyroglutamate of cyclohexanol] | 550 nM |  |  |  |
| CC(=O)N[C@@H](CC(=O)O)C(=O)OC1CC(C)CC(C)(C)C1 (stereo partly drawn) [Example VII, MAGNESIUM SALT OF 3,3,5-TRIMETHYLCYCLOHEXYL N-ACETYL-L-α-ASPARTATE] | 500 nM | 3.00 g/L | 2.70 g/L |  |
| CC1=CCC(C(C)(C)OC(=O)[C@@H]2CCC(=O)N2)CC1 (stereo partly drawn) [Example XIV, L-Pyroglutamate of terpineol] | 300 nM | 2.12 g/L | 1.10 g/L |  |
| O=C(O)c1cccnc1 [nicotinic acid, reference compound] |  |  |  | Cholesterol level ([2]; oral 500 mg/kg): 5.00 g/L; Triglyceride level ([2]; oral 500 mg/kg): 1.41 g/L |
